Laboratory results as given in patent US20250109121A1, “POTENT AND SELECTIVE SMARCA2 DEGRADING CHIMERIC MOLECULES AS CANCER THERAPEUTICS” (BOARD OF REGENTS, THE UNIVERSITY OF TEXAS SYSTEM, priority 2021, published 2025).
Read-outs that look alike come from different tables or passages of the source.

Experiments:
SMARCA4 = SMARCA4 (Homo sapiens, UniProt P51532); test: SMARCA4 degradation in cell lines, western blot; assay type: cell-based
H1693 = test: Cell proliferation (colony assay) IC50; assay type: cell-based; details: Homo sapiens, NCI-H1693; H1693, mutant SMARCA4
Procedure: (§1) Cell lines with wild-type SMARCA4 (HCC44, H2122, H1792 and H1975) and cell lines with mutant SMARCA4 (H1693, HCC515, H322, and H1299) were seeded in appropriate dilutions to form colonies in about 1-3 weeks. Cells were treated with ACBI1 or Compound 101 at concentrations of 0.001, 0.01, 0.1, 1, and 10 μm. Colonies were fixed with glutaraldehyde (6% v/v), stained with crystal violet (0.5% w/v) and the percent area of colonies was determined (FIGS. 3A and 3B). In cell lines with wild-type SMARCA4, inhibition of colony growth was more pronounced after treatment with ACBI1 than Compound 101 (FIG. 3A).

H1792 = test: Cell proliferation (colony assay) IC50; assay type: cell-based; details: Homo sapiens, NCI-H1792; H1792, wild-type SMARCA4
Procedure: as §1

H1975 = test: Cell proliferation (colony assay) IC50; assay type: cell-based; details: Homo sapiens, NCI-H1975; H1975, wild-type SMARCA4; concentration at which 50% of cellular proliferation is inhibited
Procedure: as §1

H2122 = test: Cell proliferation (colony assay) IC50; assay type: cell-based; details: Homo sapiens, NCI-H2122; H2122, wild-type SMARCA4
Procedure: as §1

H322 = test: Cell proliferation (colony assay) IC50; assay type: cell-based; details: NCI-H322; H322, mutant SMARCA4
Procedure: as §1

HCC44 = test: Cell proliferation (colony assay) IC50; assay type: cell-based; details: Homo sapiens; HCC44, wild-type SMARCA4
Procedure: as §1

HCC515 = test: Cell proliferation (colony assay) IC50; assay type: cell-based; details: Homo sapiens; HCC515, mutant SMARCA4
Procedure: as §1

H441 = test: Cell proliferation (colony assay) IC50; assay type: cell-based; details: Homo sapiens, NCI-H441; H441, wild-type SMARCA4
H2228 = test: Cell proliferation (colony assay) IC50; assay type: cell-based; details: Homo sapiens, NCI-H2228; H2228, wild-type SMARCA4
HCC2279 = test: Cell proliferation (colony assay) IC50; assay type: cell-based; details: HCC2279, wild-type SMARCA4
HCC366 = test: Cell proliferation (colony assay) IC50; assay type: cell-based; details: HCC366, mutant SMARCA4
A549 = test: Cell proliferation (colony assay) IC50; assay type: cell-based; details: Homo sapiens; A549, mutant SMARCA4
H2126 = test: Cell proliferation (colony assay) IC50; assay type: cell-based; details: Homo sapiens, NCI-H2126; H2126, mutant SMARCA4
H1793 = test: Cell proliferation (colony assay) IC50; assay type: cell-based; details: Homo sapiens, NCI-H1793; H1793, mutant SMARCA4
[1] = tested on: HCC515 lung cancer xenograft; test: In vivo anti-tumor efficacy, HCC515 lung cancer xenograft model; details: female NCR Nude mice, 12.5 mg/kg intraperitoneally once daily in 15% Solutol with 12.5 mg/kg ritonavir, versus vehicle
Procedure: About 1×10^7 HCC515 cells were injected into the flanks of female NCR Nude Mice. Tumor take was monitored visually and by palpation bi-weekly. Once tumors reached an average volume of 100 mm^3 mice were randomized into control and SMARCA2 degrader groups. Treatment cohorts were as follows: Vehicle was 15% Solutol in water together with 12.5 mg/kg of ritonavir as metabolic stabilizer. In the vehicle group, ten animals were injected with vehicle intraperitoneally. In the treatment group, ten animals were injected intraperitoneally once daily with 12.5 mg/kg of the SMARCA2 degrader Compound 101 in 15% Solutol in water together with 12.5 mg/kg of ritonavir as metabolic stabilizer.
Tumor diameter and volume were calculated based on caliper measurements of tumor length and […] using the formula tumor volume=(length×width^2)/2. Tumor volume and body weight were measured three times a week.

SMARCA2 = SMARCA2 (Homo sapiens, UniProt P51531); test: SMARCA2 degradation in cell lines, western blot; assay type: cell-based
Sequence of SMARCA2 (P51531 whole entry): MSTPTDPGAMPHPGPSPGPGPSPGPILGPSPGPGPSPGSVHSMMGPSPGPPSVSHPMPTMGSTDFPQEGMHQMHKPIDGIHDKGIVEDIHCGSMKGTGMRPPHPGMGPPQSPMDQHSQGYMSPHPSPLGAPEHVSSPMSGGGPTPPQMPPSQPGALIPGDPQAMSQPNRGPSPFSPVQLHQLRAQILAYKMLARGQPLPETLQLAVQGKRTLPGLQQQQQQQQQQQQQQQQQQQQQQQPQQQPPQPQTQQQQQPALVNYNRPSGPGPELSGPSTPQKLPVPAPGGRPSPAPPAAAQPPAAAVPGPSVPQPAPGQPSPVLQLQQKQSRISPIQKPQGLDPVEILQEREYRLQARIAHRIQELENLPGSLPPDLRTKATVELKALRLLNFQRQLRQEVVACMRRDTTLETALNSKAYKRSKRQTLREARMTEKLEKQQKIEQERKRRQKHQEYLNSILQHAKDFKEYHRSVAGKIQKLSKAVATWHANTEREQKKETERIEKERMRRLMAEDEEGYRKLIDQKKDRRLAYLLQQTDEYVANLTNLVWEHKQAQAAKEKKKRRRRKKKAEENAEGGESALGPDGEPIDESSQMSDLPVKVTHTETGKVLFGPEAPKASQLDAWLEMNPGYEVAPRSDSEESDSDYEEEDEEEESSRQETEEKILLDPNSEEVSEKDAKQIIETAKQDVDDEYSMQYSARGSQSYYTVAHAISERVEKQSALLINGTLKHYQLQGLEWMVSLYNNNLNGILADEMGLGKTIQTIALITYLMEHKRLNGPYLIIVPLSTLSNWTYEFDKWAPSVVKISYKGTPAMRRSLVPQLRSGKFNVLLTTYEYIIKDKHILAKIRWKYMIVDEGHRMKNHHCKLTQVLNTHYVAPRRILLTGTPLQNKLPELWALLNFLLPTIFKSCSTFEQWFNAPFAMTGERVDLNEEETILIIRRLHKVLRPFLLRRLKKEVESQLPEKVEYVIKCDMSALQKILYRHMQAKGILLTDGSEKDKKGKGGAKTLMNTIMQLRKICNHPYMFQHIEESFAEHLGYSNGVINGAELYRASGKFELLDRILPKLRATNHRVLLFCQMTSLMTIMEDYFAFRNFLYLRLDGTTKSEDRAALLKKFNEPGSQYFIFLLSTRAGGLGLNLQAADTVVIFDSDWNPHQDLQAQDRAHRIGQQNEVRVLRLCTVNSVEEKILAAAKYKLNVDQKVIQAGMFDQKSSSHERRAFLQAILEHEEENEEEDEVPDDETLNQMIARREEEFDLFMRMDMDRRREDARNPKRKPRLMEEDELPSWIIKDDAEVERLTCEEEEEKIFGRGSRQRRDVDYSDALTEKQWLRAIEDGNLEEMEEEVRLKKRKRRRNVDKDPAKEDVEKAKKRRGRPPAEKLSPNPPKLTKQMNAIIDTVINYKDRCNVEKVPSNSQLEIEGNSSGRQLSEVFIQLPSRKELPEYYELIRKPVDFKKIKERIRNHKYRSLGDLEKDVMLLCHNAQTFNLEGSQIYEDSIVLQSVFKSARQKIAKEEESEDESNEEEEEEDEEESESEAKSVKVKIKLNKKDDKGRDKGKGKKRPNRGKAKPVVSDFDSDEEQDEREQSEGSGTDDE

Sequence of SMARCA4 (P51532 whole entry): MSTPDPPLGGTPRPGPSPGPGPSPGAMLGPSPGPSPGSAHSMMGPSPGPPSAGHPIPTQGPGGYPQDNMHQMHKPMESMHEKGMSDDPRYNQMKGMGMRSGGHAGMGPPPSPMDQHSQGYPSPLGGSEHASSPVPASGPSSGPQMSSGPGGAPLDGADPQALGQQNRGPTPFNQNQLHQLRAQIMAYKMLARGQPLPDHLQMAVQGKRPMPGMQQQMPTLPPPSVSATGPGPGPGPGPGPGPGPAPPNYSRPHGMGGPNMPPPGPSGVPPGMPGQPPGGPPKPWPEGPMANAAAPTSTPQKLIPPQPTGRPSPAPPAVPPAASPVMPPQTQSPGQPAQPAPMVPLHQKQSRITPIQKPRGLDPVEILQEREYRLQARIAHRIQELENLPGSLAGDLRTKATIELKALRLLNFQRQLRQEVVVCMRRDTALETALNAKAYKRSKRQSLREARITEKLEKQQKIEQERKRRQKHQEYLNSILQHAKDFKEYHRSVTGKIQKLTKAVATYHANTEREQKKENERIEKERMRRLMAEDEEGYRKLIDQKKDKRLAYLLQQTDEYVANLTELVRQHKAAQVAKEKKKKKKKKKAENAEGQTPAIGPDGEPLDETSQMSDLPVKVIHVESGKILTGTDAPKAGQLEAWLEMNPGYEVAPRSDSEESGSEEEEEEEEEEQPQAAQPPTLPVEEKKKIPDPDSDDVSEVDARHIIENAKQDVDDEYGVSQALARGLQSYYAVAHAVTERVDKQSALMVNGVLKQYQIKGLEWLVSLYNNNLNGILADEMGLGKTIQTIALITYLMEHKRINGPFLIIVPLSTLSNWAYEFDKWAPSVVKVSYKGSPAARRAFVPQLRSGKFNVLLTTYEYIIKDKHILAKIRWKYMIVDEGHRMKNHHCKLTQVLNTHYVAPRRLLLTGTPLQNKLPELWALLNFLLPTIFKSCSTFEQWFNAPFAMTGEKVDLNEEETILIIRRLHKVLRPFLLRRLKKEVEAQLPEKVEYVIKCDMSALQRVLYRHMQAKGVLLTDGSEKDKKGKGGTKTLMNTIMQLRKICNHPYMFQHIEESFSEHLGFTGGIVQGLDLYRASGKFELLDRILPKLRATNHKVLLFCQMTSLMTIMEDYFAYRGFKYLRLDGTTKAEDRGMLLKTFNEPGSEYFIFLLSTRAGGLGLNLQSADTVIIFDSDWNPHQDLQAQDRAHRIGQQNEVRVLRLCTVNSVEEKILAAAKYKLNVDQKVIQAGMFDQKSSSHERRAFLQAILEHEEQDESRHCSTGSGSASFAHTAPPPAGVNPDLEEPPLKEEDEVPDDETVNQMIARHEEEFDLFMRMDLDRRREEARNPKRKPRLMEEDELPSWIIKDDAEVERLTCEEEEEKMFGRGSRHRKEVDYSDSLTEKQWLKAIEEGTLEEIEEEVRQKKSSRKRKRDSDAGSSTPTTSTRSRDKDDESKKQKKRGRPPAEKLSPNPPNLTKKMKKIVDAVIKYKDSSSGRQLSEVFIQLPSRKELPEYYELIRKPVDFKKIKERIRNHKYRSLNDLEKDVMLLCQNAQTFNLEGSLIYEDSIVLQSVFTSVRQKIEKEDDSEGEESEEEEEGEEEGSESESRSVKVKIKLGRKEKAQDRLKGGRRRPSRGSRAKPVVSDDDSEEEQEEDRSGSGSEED

In the case of Nc1nnc(-c2ccccc2O)cc1N1CCN(Cc2ccc(OCCOCCNc3cccc4c3C(=O)N(C3CCC(=O)NC3=O)C4=O)c(F)c2)CC1 (stereo not shown) [Compound 101], the “SMARCA4 Dmax (%)” value (SMARCA4; H441, wild-type SMARCA4 cell line) is reported as 37%, the DC50 (SMARCA4; H441, wild-type SMARCA4 cell line, read-out: SMARCA4 DC50) is reported as greater than 10000 nM and the DC50 (SMARCA4; H1792, wild-type SMARCA4 cell line, read-out: SMARCA4 DC50) is reported as greater than 10000 nM. For the same molecule, the Dmax (SMARCA4; H1975, H1792, H2122, H441 (Table 3), read-out: SMARCA4 Dmax, span over cell lines) was 38 to 50%, the “SMARCA4 degradation (western blot, in words)” value (SMARCA4; H1975, H1792, H2122, H441, 0.001-10 μm, increasing concentrations) was “degraded SMARCA2 and SMARCA4” and the DC50 (SMARCA4; H1975, wild-type SMARCA4 cell line, read-out: SMARCA4 DC50) was greater than 10000 nM. It also gave a DC50 (SMARCA4; H2122, wild-type SMARCA4 cell line, read-out: SMARCA4 DC50) greater than 10000 nM, a DC50 (SMARCA4; H2228, wild-type SMARCA4 cell line, read-out: SMARCA4 DC50) greater than 10000 nM and a Dmax (SMARCA4; HCC44, HCC44, wild-type SMARCA4 cell line, read-out: SMARCA4 Dmax (%)) of 39%. For the same molecule, the DC50 (SMARCA4; HCC44, wild-type SMARCA4 cell line, read-out: SMARCA4 DC50) was greater than 10000 nM, the Dmax (SMARCA4; HCC827, HCC827, wild-type SMARCA4 cell line, read-out: SMARCA4 Dmax (%)) was 39% and the DC50 (SMARCA4; HCC827, wild-type SMARCA4 cell line, read-out: SMARCA4 DC50) was greater than 10000 nM. It also gave a DC50 (SMARCA4; HCC2279, wild-type SMARCA4 cell line, read-out: SMARCA4 DC50) of 560 nM, a Dmax (SMARCA4; HCC2279, wild-type SMARCA4 cell line, read-out: SMARCA4 Dmax (%)) of 79% and a DC50 (SMARCA4; HOP62, wild-type SMARCA4 cell line, read-out: SMARCA4 DC50) of 1410 nM. For the same molecule, the Dmax (SMARCA4; HOP-62, HOP62, wild-type SMARCA4 cell line, read-out: SMARCA4 Dmax (%)) was 77%, the Dmax (SMARCA4; NCI-H441, H441, wild-type SMARCA4 cell line, read-out: SMARCA4 Dmax (%)) was 50% and the Dmax (SMARCA4; NCI-H1792, H1792, wild-type SMARCA4 cell line, read-out: SMARCA4 Dmax (%)) was 38%. It also gave a Dmax (SMARCA4; NCI-H2122, H2122, wild-type SMARCA4 cell line, read-out: SMARCA4 Dmax (%)) of 47%, a Dmax (SMARCA4; NCI-H2228, H2228, wild-type SMARCA4 cell line, read-out: SMARCA4 Dmax (%)) of 25% and a Dmax (SMARCA4; wild-type SMARCA4 cells (Table 4), read-out: SMARCA4 Dmax, span over cell lines) of 38 to 79%. The DC50 (SMARCA4; wild-type SMARCA4 cells (Table 4), upper end printed as above 10 μM, read-out: DC50 for SMARCA4 degradation, lower end of span over cell lines) was no less than 560 nM, the IC50 (H1693) was 141 nM and the IC50 (H1792) was 8700 nM. The IC50 (H1975) was greater than 10000 nM, the IC50 (H2122) was 2600 nM and the IC50 (H322) was 93 nM. It also gave an IC50 (HCC44) of 2500 nM, an IC50 (HCC515) of 817 nM and an IC50 (H441) greater than 10000 nM. The IC50 (H2228) was 970 nM, the IC50 (HCC2279) was greater than 10000 nM and the IC50 (HCC366) was 242 nM. It also gave an IC50 (A549) greater than 10000 nM, an IC50 (H2126) of roughly 20 nM and an IC50 (H1793) of 900 nM. The “tumor volume (in words)” value [1] was “substantial reduction in tumor volume”, the Dmax (SMARCA2; A549, A549, mutant SMARCA4 cell line, read-out: SMARCA2 Dmax (%)) was 96% and the DC50 (SMARCA2; A549, mutant SMARCA4 cell line) was 57 nM. The DC50 (SMARCA2; H322, mutant SMARCA4 cell line) was 27 nM, the DC50 (SMARCA2; H838, mutant SMARCA4 cell line) was 26 nM and the DC50 (SMARCA2; H1693, mutant SMARCA4 cell line) was 113 nM. It also gave a DC50 (SMARCA2; H1793, mutant SMARCA4 cell line) of 2 nM, a DC50 (SMARCA2; H2023, mutant SMARCA4 cell line) of 42 nM and a DC50 (SMARCA2; H2126, mutant SMARCA4 cell line) of 10 nM. It also gave a DC50 (SMARCA2; H2228, wild-type SMARCA4 cell line) of 106 nM, a DC50 (SMARCA2; H2935, mutant SMARCA4 cell line) of 8 nM and a Dmax (SMARCA2; H2935, mutant SMARCA4 cell line, read-out: SMARCA2 Dmax (%)) of 83%. For the same molecule, the Dmax (SMARCA2; HCC44, HCC44, wild-type SMARCA4 cell line, read-out: SMARCA2 Dmax (%)) was 99%, the DC50 (SMARCA2; HCC44, wild-type SMARCA4 cell line) was 69 nM and the Dmax (SMARCA2; HCC366, HCC366, mutant SMARCA4 cell line, read-out: SMARCA2 Dmax (%)) was 99%. For the same molecule, the DC50 (SMARCA2; HCC366, mutant SMARCA4 cell line) was 13 nM, the Dmax (SMARCA2; HCC515, HCC515, mutant SMARCA4 cell line, read-out: SMARCA2 Dmax (%)) was 81% and the DC50 (SMARCA2; HCC515, mutant SMARCA4 cell line) was 83 nM. The Dmax (SMARCA2; HCC827, HCC827, wild-type SMARCA4 cell line, read-out: SMARCA2 Dmax (%)) was 83%, the DC50 (SMARCA2; HCC827, wild-type SMARCA4 cell line) was 70 nM and the DC50 (SMARCA2; HCC2279, wild-type SMARCA4 cell line) was 32 nM. For the same molecule, the Dmax (SMARCA2; HCC2279, wild-type SMARCA4 cell line, read-out: SMARCA2 Dmax (%)) was 99%, the DC50 (SMARCA2; HOP62, wild-type SMARCA4 cell line) was 33 nM and the Dmax (SMARCA2; HOP-62, HOP62, wild-type SMARCA4 cell line, read-out: SMARCA2 Dmax (%)) was 99%. It also gave a Dmax (SMARCA2; NCI-H322, H322, mutant SMARCA4 cell line, read-out: SMARCA2 Dmax (%)) of 99%, a Dmax (SMARCA2; NCI-H441, H441, wild-type SMARCA4 cell line, read-out: SMARCA2 Dmax (%)) of 67% and a Dmax (SMARCA2; NCI-H838, H838, mutant SMARCA4 cell line, read-out: SMARCA2 Dmax (%)) of 98%. For the same molecule, the Dmax (SMARCA2; NCI-H1693, H1693, mutant SMARCA4 cell line, read-out: SMARCA2 Dmax (%)) was 84%, the Dmax (SMARCA2; NCI-H1792, H1792, wild-type SMARCA4 cell line, read-out: SMARCA2 Dmax (%)) was 89% and the Dmax (SMARCA2; NCI-H1793, H1793, mutant SMARCA4 cell line, read-out: SMARCA2 Dmax (%)) was 99%. The Dmax (SMARCA2; NCI-H1975, H1975, wild-type SMARCA4 cell line, maximum degradation as percentage of DMSO control, read-out: SMARCA2 Dmax (%)) was 93%, the Dmax (SMARCA2; NCI-H2023, H2023, mutant SMARCA4 cell line, read-out: SMARCA2 Dmax (%)) was 99% and the Dmax (SMARCA2; NCI-H2122, H2122, wild-type SMARCA4 cell line, read-out: SMARCA2 Dmax (%)) was 94%. For the same molecule, the Dmax (SMARCA2; NCI-H2126, H2126, mutant SMARCA4 cell line, read-out: SMARCA2 Dmax (%)) was 99%, the Dmax (SMARCA2; NCI-H2228, H2228, wild-type SMARCA4 cell line, read-out: SMARCA2 Dmax (%)) was 82% and the Dmax (SMARCA2; mutant SMARCA4 cells (Table 5), read-out: SMARCA2 Dmax, span over cell lines) was 81 to 99%. It also gave a Dmax (SMARCA2; wild-type SMARCA4 cells (Table 4), read-out: SMARCA2 Dmax, span over cell lines) of 82 to 99%.
